Series [1] relates to aflatoxines produced by Aspergillus parasiticus. Kind of series: microbe, parasite or virus in culture. It counts as cell-based.
Series [2] deals with Venturia inaequalis. Kind of series: In vivo preventive test on Venturia inaequalis (apple scab). Particulars: 100 ppm of active ingredient, evaluated 10 days after inoculation. The procedure: (§1) Solvent: 24.5 parts by weight of acetone • 24.5 parts by weight of N,N-dimethylacetamide Emulsifier: 1 part by weight of alkylaryl polyglycol ether To produce a suitable preparation of active compound, 1 part by weight of active compound is mixed with the stated amounts of solvent and emulsifier, and the concentrate is diluted with water to the desired concentration. To test for preventive activity, young plants are sprayed with the preparation of active compound at the stated rate of application.

The test system of series [3] is Pyrenophora teres. Kind of series: In vivo preventive test on Pyrenophora teres (barley). Particulars: 500 ppm of active ingredient, evaluated 7-9 days after inoculation. In short, it runs like this: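 Compound formulated in N,N-dimethylformamide with alkylaryl polyglycol ether emulsifier and diluted in water, then sprayed on young barley plants at the stated application rate. Plants inoculated one day later with aqueous Pyrenophora teres spore suspension, testing preventive protection.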

Series [4] in a line: log P by HPLC on reversed-phase column (EEC Directive 79/831 Annex V.A8). Format: physicochemical. The method, then: In table 1, the log P values were determined in accordance with EEC Directive 79/831 Annex V.A8 by HPLC (High Performance Liquid Chromatography) on a reversed-phase column (C18), using the method described below: Temperature: 40° C.; […]
For series [5], the system named is Alternaria solani. Kind of series: In vivo preventive test on Alternaria solani (tomato). Particulars: 500 ppm of active ingredient, evaluated 7 days after inoculation. The gist of the method: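 Young tomato plants sprayed preventively with compound in DMF/alkylarylpolyglycolether emulsion diluted in water to the stated rate. Inoculation with aqueous Alternaria solani spore suspension one day after treatment.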

For series [6], the system named is Septoria tritici. Kind of series: In vivo preventive test on Septoria tritici (wheat). Particulars: 500 ppm of active ingredient, evaluated 21 days after inoculation. The procedure:
Solvent: 49 parts by weight of N,N-dimethylacetamide Emulsifier: 1 part by weight of alkylaryl polyglycol ether To produce a suitable preparation of active compound, 1 part by weight of active compound or active compound combination is mixed with the stated amounts of solvent and emulsifier, and the concentrate is diluted with water to the desired concentration. To test for preventive activity, young plants are sprayed with the preparation of active compound or active compound combination at the stated rate of application. After the spray coating has been dried, the plants are sprayed with a spore suspension of Septoria tritici.

The test system of series [7] is Blumeria graminis fsp. hordei. The experiment in a line: In vivo preventive test on Blumeria graminis (barley). Particulars: 500 ppm of active ingredient, evaluated 7 days after inoculation. The method, then:
Solvent: 49 parts by weight of N,N-dimethylacetamide Emulsifier: 1 part by weight of alkylaryl polyglycol ether To produce a suitable preparation of active compound, 1 part by weight of active compound or active compound combination is mixed with the stated amounts of solvent and emulsifier, and the concentrate is diluted with water to the desired concentration. To test for preventive activity, young plants are sprayed with the preparation of active compound or active compound combination at the stated rate of application. After the spray coating has been dried, the plants are dusted with spores of Blumeria graminis fsp. hordei.

Series [8] deals with Puccinia triticina. The experiment in a line: In vivo preventive test on Puccinia triticina (wheat). Particulars: Table K, 500 ppm of active ingredient, evaluated 8 days after inoculation.
In series [9] the test system is Fusarium nivale (var. majus). The experiment in a line: In vivo preventive test on Fusarium nivale (wheat). Particulars: 500 ppm of active ingredient, evaluated 5 days after inoculation. The procedure: Solvent: 49 parts by weight of N,N-dimethylacetamide Emulsifier: 1 part by weight of alkylaryl polyglycol ether To produce a suitable preparation of active compound, 1 part by weight of active compound or active compound combination is mixed with the stated amounts of solvent and emulsifier, and the concentrate is diluted with water to the desired concentration. To test for preventive activity, young plants are sprayed with the preparation of active compound or active compound combination at the stated rate of application. After the spray coating has been dried, the plants are slightly injured by using a sandblast and afterwards they are sprayed with a conidia suspension of Fusarium nivale (var. majus).

Series [10] has as its system Aspergillus parasiticus. The experiment in a line: microbe, parasite or virus in culture. Format: cell-based.
Series [11] deals with Uromyces appendiculatus. Kind of series: In vivo preventive test on Uromyces appendiculatus (beans). Particulars: 100 ppm of active ingredient, evaluated 10 days after inoculation. The procedure:
as §1

In series [12] the test system is Botrytis cinerea. Kind of series: In vivo preventive test on Botrytis cinerea (beans). Particulars: Table L, 500 ppm of active ingredient, lesion size 2 days after inoculation. The method, then:
Solvent: 24.5 parts by weight of acetone • 24.5 parts by weight of N,N-dimethylacetamide
Emulsifier: 1 part by weight of alkylaryl polyglycol ether
To produce a suitable preparation of active compound, 1 part by weight of active compound is mixed with the stated amounts of solvent and emulsifier, and the concentrate is diluted with water to the desired concentration.
To test for preventive activity, young plants are sprayed with the preparation of active compound. After the spray coating has dried on, 2 small pieces of agar covered with growth of Botrytis cinerea are placed on each leaf. The inoculated plants are placed in a darkened chamber at 20° C. and a relative atmospheric humidity of 100%.
2 days after the inoculation, the size of the lesions on the leaves is evaluated. 0% means an efficacy which corresponds to that of the untreated control, while an efficacy of 100% means that no disease is observed.

In series [13] the test system is Sphaerotheca fuliginea. The experiment in a line: In vivo preventive test on Sphaerotheca fuliginea (cucumber). Particulars: 500 ppm of active ingredient, evaluated 7 days after inoculation. The gist of the method: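 Young cucumber plants sprayed with compound (in DMF with alkylarylpolyglycolether emulsifier, diluted in water) at the stated application rate. Inoculated one day later with aqueous Sphaerotheca fuliginea spore suspension. Plants then held in greenhouse at approximately 23° C and approximately 70% relative humidity.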

The test system of series [14] is Leptosphaeria nodorum. The experiment in a line: In vivo preventive test on Leptosphaeria nodorum (wheat). Particulars: 500 ppm of active ingredient, evaluated 7-9 days after inoculation. In short, it runs like this: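 Compound formulated in N,N-dimethylacetamide with alkylaryl polyglycol ether emulsifier and diluted with water. Young wheat plants were sprayed at the stated application rate, then inoculated one day later with an aqueous spore suspension of L. nodorum.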

The structures appear in SMILES notation. Like-named read-outs stand apart in the source and are kept apart here.

`CCCC1CCCCC1NC(=O)c1c(C(F)F)nn(C)c1F` (single isomer, unassigned) [Example 343]: the “% Inhibition of Aflatoxin at 50 μM” value in [1] was found to be 100%. Also, the Efficacy came to 97% in series [2]; 100% in series [3]; 95% in [5]; 100% in series [6]; 94% in series [7]; 70% in series [8]. Also, in [9], the Efficacy is 100%. Moreover, in series [4], the logP is 3.42 isomer A. Moreover, the “% Inhibition of fungal growth at 50 μM” value in series [10] (50 µM) is listed as 87%.
Turning to `CON(C(=O)c1c(C(F)F)nn(C)c1Cl)C(C)CCc1c(Cl)cc(Cl)cc1Cl` (centres unmarked) [Example 218], the Efficacy in series [2] stood at 100%; in [3], 100%; in [11], 95%; in series [5], 90%; in series [6], 86%; in [9], 100%. The same compound had a logP in series [4] of 4.89.
On to `Cn1nc(C(F)F)c(C(=O)NC2CCCC2CCC(C)(C)C)c1F` (centres unmarked) [Example 319, 3-(difluoromethyl)-N-[2-(3,3-dimethylbutyl)cyclopentyl]-5-fluoro-1-methyl-1H-pyrazole-4-carboxamide], for which the inhibition (in general, the percentage by which the read-out fell short of the control) at 50 µM in series [1] (Aspergillus parasiticus, 168 h, read-out: % Inhibition of Aflatoxin at 50 μM) was found to be 100%; in series [10] (Aspergillus parasiticus, 168 h, read-out: % Inhibition of fungal growth at 50 μM) it was 89%. The Efficacy in series [12] turned out to be 73%; in series [3], 100%; in [13], 100%; in series [5], 100%; in series [6] it was 100%; in series [7], 100%. In addition, in series [9], the Efficacy was determined as 100%. In addition, the values for the chromatographic logP in [4] (log P (isomer A)), in series [4] (log P (isomer B)) and in series [4] (logP) were 4.22, 4.28 and 4.22, respectively. In addition, the pest or weed control at 500 ppm in series [8] (Puccinia triticina, 192 h, read-out: Efficacy) is 80%.
In the case of `Cn1nc(C(F)F)c(C(=O)NC2CCCCC2CCC(C)(C)C)c1Cl` (single isomer, unassigned) [Example 355], the Efficacy in [2] is recorded as 99%; in [11], 100%; in series [7], 80%; in series [9] it was 100%. Moreover, the logP in [4] was 4.95 isomer B.
For the compound `CCCCCCC1CCCCC1NC(=O)c1c(C(F)F)nn(C)c1F` (centres unmarked) [Example 326], the logP in [4] amounted to 5.07. Further, the figures for the Efficacy in series [6], in [8] and in series [9] were 78%, 100% and 92%, respectively.
With `CC(N(C(=O)c1c(C(F)F)nn(C)c1F)C1CC1)C(C)(C)Cc1ccccc1` (centres unmarked) [Example 9], the Efficacy in series [12] turned out to be 100%; in series [2], 100%; in series [3], 100%; in series [14] it was 100%; in series [13], 95%; in series [11], 94%. In addition, the Efficacy is 90% in series [5], 100% in series [6], 100% in series [7] and 100% in series [9]. Further, the logP in series [4] is given as 4.06.
Take `CC(C)CC(C)C1CCCCC1NC(=O)c1c(C(F)F)nn(C)c1Cl` (single isomer, unassigned) [Example 335]: the “% Inhibition of Aflatoxin at 50 μM” value in [1] was 100%. In addition, the Efficacy in series [2] is given as 100%; in [11], 100%; in [7], 70%; in [8] it was 100%; in series [9] it was 86%. This compound came in with a logP in [4] of 4.96 isomer B. For the same compound, in [10] (50 µM), the “% Inhibition of fungal growth at 50 μM” value is given as 84%.
Regarding `CC(CCc1c(Cl)cc(Cl)cc1Cl)N(C(=O)c1c(C(F)F)nn(C)c1F)C1CC1` (centres unmarked) [Example 213], in series [1], the “% Inhibition of Aflatoxin at 50 μM” value is 100%. For the same compound, the Efficacy stood at 86% in series [12]; 100% in series [3]; 95% in series [14]; 99% in [13]; 100% in series [5]; 93% in series [6]. The Efficacy in series [7] turned out to be 100%; in series [8], 90%; in series [9] it was 93%. In series [4], this compound returned a logP of 5.14. Further, in series [10], the “% Inhibition of fungal growth at 50 μM” value is 100%.
As for `CC(CCc1ccc(Cl)cc1Cl)N(C(=O)c1c(C(F)F)nn(C)c1F)C1CC1` (centres unmarked) [Example 184], the “% Inhibition of Aflatoxin at 50 μM” value in series [1] is recorded as 100%. Besides, the Efficacy in [2] is 100%; in series [3] it was 100%; in series [14], 95%; in series [13], 100%; in series [11], 100%; in series [5], 90%. Also, the Efficacy was determined as 100% in series [6], 100% in [7], 90% in series [8] and 100% in series [9]. The logP in [4] was 4.56. Moreover, the “% Inhibition of fungal growth at 50 μM” value in series [10] came out at 100%.
On to `Cn1nc(C(F)F)c(C(=O)NC2CCCCC2CCC(C)(C)C)c1Cl` (single isomer, unassigned) [Example 354], for which the Efficacy in series [2], in series [11], in [7], in [8] and in series [9] was 100% throughout. In series [4], the logP turned out to be 4.73 isomer A.
With `CCCCC1CCCCC1NC(=O)c1c(C(F)F)nn(C)c1Cl` (centres unmarked) [Example 331], the “% Inhibition of Aflatoxin at 50 μM” value in [1] was determined as 99%. In addition, the Efficacy is reported as 100% in [2]; 95% in series [3]; 100% in [13]; 100% in series [11]; 100% in [5]; 100% in series [6]. Also, the Efficacy in series [7] was 100%; in series [8], 90%; in series [9] it was 100%. Moreover, the logP in series [4] was found to be 4.10. The “% Inhibition of fungal growth at 50 μM” value in series [10] is reported as 79%.
As to `CC(CC(C)(C)C)C1CCCCC1NC(=O)c1c(C(F)F)nn(C)c1Cl` (centres unmarked) [Example 359], the “% Inhibition of Aflatoxin at 50 μM” value in series [1] amounted to 100%. For the same compound, the Efficacy amounted to 99% in series [2]; 100% in series [3]; 100% in [13]; 100% in series [11]; 95% in [5]; 100% in [6]. Further, the Efficacy in series [7] was 94%; in series [8], 100%; in series [9], 100%. In series [4], this compound yielded a logP of 5.28. Further, the “% Inhibition of fungal growth at 50 μM” value in series [10] is given as 90%.

(Values after patent publication US8999956B2, “N-[(het)arylalkyl)] pyrazole(thio)carboxamides and their heterosubstituted analogues” (Bayer Intellectual Property GmbH, priority 2010, dated 2015).)
